# Laboratory results published in patent US20230057602A1, “METHODS OF TREATMENT WITH ANTIBODIES AGAINST BCMA AND CD3” (BRISTOL-MYERS SQUIBB COMPANY, priority 2019, published 2023).
# Legend:
# [1] = tested on: Relapsed/Refractory Multiple Myeloma (RRMM) patients; test: Clinical study of CC-93269 in RRMM: efficacy (IMWG response, MRD); type: in vivo, human
# Description: This study involved 19 RRMM patients who had received ≥3 prior regimens without prior BCMA-directed therapy. Prior treatments included autologous stem cell transplantation, allogenic stem cell transplantation, lenalidomide, pomalidomide, bortezomib, carfilzomib, and daratumumab (DARA). All patients had MM refractory to their last line of therapy.
# CC-93269 (42-TCBcv), a bispecific antibody that specifically binds to BCMA bivalently and CD3 monovalently, was administered intravenously over 2 hours on Days 1, 8, 15, and 22 for Cycles 1-3; Days 1 and 15 for Cycles 4-6; and on Day 1 for Cycle 7 and beyond, all in 28-day cycles. 14 patients received a fixed dose of CC-93269 at each of the intervals: 0.15 mg (Cohort 1, n=1), 0.5 mg (Cohort 2, n=1), 1.5 mg (Cohort 3, n=1), 3 mg (Cohort 4, n=4), 6 mg (Cohort 5, n=3) or 10 mg (Cohort 6, n=4). 5 patients received a starting dose of 6 mg on Cycle 1 Day 1, followed by a dose of 10 mg on Cycle 1 Day 8 and thereafter (Cohort 7, n=5).
# Response was assessed using the International Myeloma Working Group (IMWG) Uniform Response Criteria (Rajkumar, 2011a; Kumar, 2016) at every cycle starting on Cycle 2 Day 1 and at the end of treatment. Minimal residual disease (MRD) was assessed by EuroFlow evaluation and NGS (next-generation sequencing) if evaluable. MRD negativity was reported only if a minimum sensitivity of <1 tumour cell in 10^5 nucleated cells was achieved. […]
# [2] = Subcutaneous versus intravenous bioavailability (data not shown); type: in vivo
# Description: In some embodiments of any aspect of the invention, the multispecific (e.g. bispecific) antibody is administered intravenously or subcutaneously.
# [3] = tested on: H929 BCMA-expressing myeloma cell line; test: CC-93269-induced redirected lysis of H929; type: cell-based, human; settings: E:T 1:1, 72 hours, 3 donors
# Description: (§1) Four BCMA-expressing tumour cell lines purchased from ATCC (Manassa, Va.) (Multiple Myeloma cell lines: BCMA high-H-929 (catalog number CRL-9068), BCMA mid-SKMM2 and -MM.1S (catalog number ACC-430) and BCMA low-KMS12-PE (catalog number ACC-606)) were co-cultured with T-cells from 3 independent healthy donors (Bloodworks Northwest, Seattle, Wash.), at a E:T ratio of 1:1, i.e. 1 T cell: 1 myeloma cell. […]; 0.033-2.6 nM) for 72 hours.
# (§2) FIG. 7 illustrates CC-93269-induced redirected lysis of BCMA+ tumour cell lines following co-culture with donor T cells from one healthy donor; results from all 3 independent healthy donors are summarised in Table 19. In 96-well round bottom plates and a final volume of 100 μL, 1×10^4 CellTrace Violet-labeled T-cells were plated with 1×10^4 CellTrace CFSE-labeled target cells, in the presence of varying concentrations of CC-93269 in combination with varying concentrations of dexamethasone (7-point dose response). The cocultures were incubated at 37° C. with 5% CO2. […] One-hundred percent viability was determined by the absolute cell count of live tumour cells at no addition of CC-93269 or dexamethasone; an absolute cell count of 0 live cells was used to define 100% killing of tumour cells. […] The IC50 values were calculated using non-linear regression analysis, sigmoidal dose-response using GraphPad Prism (version 5.0) software.
# [4] = tested on: SKMM2 BCMA-expressing myeloma cell line; test: CC-93269-induced redirected lysis of SKMM2; type: cell-based, human; settings: E:T 1:1, 72 hours, 3 donors
# Description: as §1, §2
# [5] = 12 patients treated with ≥6 mg (Cohort 5 to 7)
# [6] = Patients Treated with <6 mg (n = 7)
# [7] = Patients Treated with up to 10 mg (n = 9)
# [8] = Patients Treated with ≥6 mg (n = 12)
# [9] = Patients treated with up to 3 mg (n = 7)
# [10] = Patients treated with up to 6 mg (n = 14)
# [11] = patients treated with ≥6 mg (Cohort 5 to 7)
substance,measurement,setting,value
"CC-93269: bispecific antibody that specifically binds to BCMA bivalently and CD3 monovalently; SEQ ID NO:48, 55, 56, 57 (2×)",responses,"[1]; 4 patients of Cohort 4, consecutive doses of 3 mg",No responses were observed
same,preliminary overall response rate,"[1]; 9 subjects, maintenance dose of 10 mg (Cohorts 6 and 7)",88.9%
same,MRD negativity,[1]; [5],75.0%
same,overall response rate (partial response or better),[1]; [5],83.3%
same,stringent complete response (sCR),[1]; [5],33.3%
same,very good partial response (VGPR) or better,[1]; [5],58.3%
same,Best response: Minimal response (MR),[1]; All Patients (N =19),0 (0) n (%)
same,Best response: Not evaluable,[1]; All Patients (N =19),2 (10.5) n (%)
same,Best response: Partial response (PR),[1]; All Patients (N =19),3 (15.8) n (%)
same,Best response: Progressive disease (PD),[1]; All Patients (N =19),3 (15.8) n (%)
same,Best response: Stringent complete response + complete response (sCR + CR),[1]; All Patients (N =19),4 (21.1) n (%)
same,Best response: Very good partial response (VGPR),[1]; All Patients (N =19),3 (15.8) n (%)
same,VGPR or better,[1]; All Patients (N =19),7 (36.8) n (%)
same,Overall response (PR or better),"[1]; All Patients (N =19), Cohorts 1-7",10 (52.6) n (%)
same,response compared with Cohorts 1 to 4 (maintenance dose ≤3 mg),"[1]; Cohorts 8 and 9, starting dose 3 mg then maintenance dose ≥6 mg",improved response
same,Best response: Minimal response (MR),[1]; [6],0 (0) n (%)
same,Best response: Not evaluable,[1]; [6],1 (14.3) n (%)
same,Best response: Partial response (PR),[1]; [6],0 (0) n (%)
same,Best response: Progressive disease (PD),[1]; [6],2 (28.6) n (%)
same,Best response: Stringent complete response + complete response (sCR + CR),[1]; [6],0 (0) n (%)
same,Best response: Very good partial response (VGPR),[1]; [6],0 (0) n (%)
same,VGPR or better,[1]; [6],0 (0) n (%)
same,Overall response (PR or better),"[1]; Patients Treated with <6 mg (n = 7), Cohorts 1-7",0 (0) n (%)
same,Best response: Minimal response (MR),[1]; [7],0 n (%)
same,Best response: Not evaluable,[1]; [7],1 (11.1) n (%)
same,Best response: Partial response (PR),[1]; [7],1 (11.1) n (%)
same,Best response: Progressive disease (PD),[1]; [7],0 n (%)
same,Best response: Stringent complete response + complete response (sCR + CR),[1]; [7],4 (44.4) n (%)
same,Best response: Very good partial response (VGPR),[1]; [7],3 (33.3) n (%)
same,Overall response (PR or better),"[1]; Patients Treated with up to 10 mg (n = 9), Cohorts 1-9",8 (88.9) n (%)
same,Best response: Minimal response (MR),[1]; [8],0 (0) n (%)
same,Best response: Not evaluable,[1]; [8],1 (8.3) n (%)
same,Best response: Partial response (PR),[1]; [8],3 (25.0) n (%)
same,Best response: Progressive disease (PD),[1]; [8],1 (8.3) n (%)
same,Best response: Stringent complete response + complete response (sCR + CR),[1]; [8],4 (33.3) n (%)
same,Best response: Very good partial response (VGPR),[1]; [8],3 (25.0) n (%)
same,MRD negative,[1]; [8],9 (75.0) n (%)
same,VGPR or better,[1]; [8],7 (58.3) n (%)
same,Overall response (PR or better),"[1]; Patients Treated with ≥6 mg (n = 12), Cohorts 1-7",10 (83.3) n (%)
same,Best response: Minimal response (MR),[1]; [9],0 (0) n (%)
same,Best response: Not evaluable,[1]; [9],1 (14.3) n (%)
same,Best response: Partial response (PR),[1]; [9],0 (0) n (%)
same,Best response: Progressive disease (PD),[1]; [9],2 (28.6) n (%)
same,Best response: Stringent complete response + complete response (sCR + CR),[1]; [9],0 (0) n (%)
same,Best response: Very good partial response (VGPR),[1]; [9],0 (0) n (%)
same,Overall response (PR or better),"[1]; Patients treated with up to 3 mg (n = 7), Cohorts 1-9",0 (0) n (%)
same,Best response: Minimal response (MR),[1]; [10],0 (0) n (%)
same,Best response: Not evaluable,[1]; [10],3 (21.4) n (%)
same,Best response: Partial response (PR),[1]; [10],3 (21.4) n (%)
same,Best response: Progressive disease (PD),[1]; [10],5 (35.7) n (%)
same,Best response: Stringent complete response + complete response (sCR + CR),[1]; [10],1 (7.1) n (%)
same,Best response: Very good partial response (VGPR),[1]; [10],1 (7.1) n (%)
same,Overall response (PR or better),"[1]; Patients treated with up to 6 mg (n = 14), Cohorts 1-9",5 (35.7) n (%)
same,preliminary overall response rate,"[1]; patients treated with up to 6 mg (Cohorts 5, 8, and 9)",35.7%
same,median time to response,[1]; [11],4.2 weeks
same,"time to response, range",[1]; [11],4.0-13.1 weeks
same,bioavailability of subcutaneous administration,[2],comparable bioavailability to intravenous administration
same,"% live tumour cells, Mean",[3]; 1 μM Dex co-treatment,2.11%
same,"% live tumour cells, Mean",[3]; DMSO,1.61%
same,"% live tumour cells, Mean",[4]; 1 μM Dex co-treatment,3.5%
same,"% live tumour cells, Mean",[4]; DMSO,2.68%
